Results reported in patent US8927715B2, “Inhibitors of 11β-hydroxysteroid dehydrogenase type 1” (Vitae Pharmaceuticals, Inc., priority 2006, dated 2015).

These molecules were tested against human 11β-HSD1 (Homo sapiens, UniProt P28845) (assay: Inhibition of a microsomal preparation of 11β-HSD1, SPA (Biological Test Example 2)). Settings: read-out: Biological Test Example 2 (IC50 class).
human 11β-HSD1, sequence (P28845 whole entry): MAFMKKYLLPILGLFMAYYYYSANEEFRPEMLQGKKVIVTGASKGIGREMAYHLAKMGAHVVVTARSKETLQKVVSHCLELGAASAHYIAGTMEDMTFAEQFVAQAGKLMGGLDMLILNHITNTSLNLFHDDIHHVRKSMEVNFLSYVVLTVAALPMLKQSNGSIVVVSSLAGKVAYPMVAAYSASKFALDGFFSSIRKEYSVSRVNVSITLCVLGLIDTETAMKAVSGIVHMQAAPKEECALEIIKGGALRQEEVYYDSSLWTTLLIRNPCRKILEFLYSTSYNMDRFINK
Assay type: biochemical
Set-up: expressed in transfected cells; host or cells: CHO cells (microsomes)
Method: All reactions are carried out at room temperature in 96 well clear flexible PET Microbeta plates (PerkinElmer). […] After a 10 minute pre-incubation, 50 μL of enzyme solution containing microsomes isolated from CHO cells overexpressing human 11β-HSD1 (10-20 μg/ml of total protein) is added, and the plates are then incubated for 90 minutes at room temperature. The reaction is stopped by adding 50 μl of the SPA beads suspension containing […] 18β-glycyrrhetinic acid, 5 mg/ml protein A coated YSi SPA beads (GE Healthcare) and 3.3 μg/ml of anti-cortisol antibody (East Coast Biologics) in Superblock buffer (Bio-Rad). The plates are then shaken for 120 minutes at room temperature, and the SPA signal corresponding to [^3H]cortisol is measured on a Microbeta plate reader.
“3-(1′-(2-Adamantyloxycarbonyl)-1H-spiro[isoquinoline-4,4′-piperidine]-2(3H)-ylsulfonyl)propanoic acid [Example 109]” was tested, and the IC50 was less than 50 nM.
“3-(1′-((2-Adamantyl)carbamoyl)-1H-spiro[isoquinoline-4,4′-piperidine]-2(3H)-yl)propanoic acid [Example 33]” showed an IC50 of less than 50 nM.
In the case of “4-(1′-(2-Adamantyloxycarbonyl)-1H-spiro[isoquinoline-4,4′-piperidine]-2(3H)-yl)-4-oxobutanoic acid [Example 94]”, the IC50 is reported as less than 50 nM.
Molecule `CCOC(=O)CC1CC2(CCN(C(=O)NC3C4CC5CC(C4)CC3C5)CC2)c2c(Br)cccc21` (racemic) [Example 42, (±)-Ethyl 2-(7-bromo-1′-((2-adamantyl)carbamoyl)-2,3-dihydrospiro[indene-1,4′-piperidine]-3-yl)acetate] has an IC50 of less than 50 nM.
With `O=C(O)CC1CC2(CCN(C(=O)NC3C4CC5CC(C4)CC3C5)CC2)c2c(Br)cccc21` (racemic) [Example 43, (±)-2-(7-Bromo-1′-((2-adamantyl)carbamoyl)-2,3-dihydrospiro[indene-1,4′-piperidine]-3-yl)acetic acid] the IC50 was less than 50 nM.
`N#CCC1CC2(CCN(C(=O)NC3C4CC5CC(C4)CC3C5)CC2)c2ccccc21` (racemic) [Example 45] showed an IC50 of less than 50 nM.
`O=C(NC1C2CC3CC(C2)CC1C3)N1CCC2(CC1)CC(Cc1nnn[nH]1)c1ccccc12` (racemic) [Example 46, (±)-3-((1H-Tetrazol-5-yl)methyl)-N-(2-adamantyl)-2,3-dihydrospiro[indene-1,4′-piperidine]-1′-carboxamide] gave an IC50 of less than 50 nM.
For `CCOC(=O)CC1CC2(CCN(C(=O)NC3C4CC5CC(C4)CC3C5)CC2)c2c(C)cccc21` (racemic) [Example 47, (±)-Ethyl 2-(1′-((2-adamantyl)carbamoyl)-7-methyl-2,3-dihydrospiro[indene-1,4′-piperidine]-3-yl)acetate], the IC50 was less than 50 nM.
With `Cc1cccc2c1C1(CCN(C(=O)NC3C4CC5CC(C4)CC3C5)CC1)CC2CC(=O)O` (racemic) [Example 48, (±)-2-(1′-((2-Adamantyl)carbamoyl)-7-methyl-2,3-dihydrospiro[indene-1,4′-piperidine]-3-yl)acetic acid] the IC50 was less than 50 nM.
`CCOC(=O)CC1CC2(CCN(C(=O)NC3C4CC5CC(C4)CC3C5)CC2)c2cccc(C)c21` (racemic) [Example 49, (±)-Ethyl 2(1′-((2-adamantyl)carbamoyl)-4-methyl-2,3-dihydrospiro[indene-1,4′-piperidine]-3-yl)acetate] showed an IC50 of less than 50 nM.
`CCOC(=O)CC1CC2(CCN(C(=O)NC3C4CC5CC(C4)CC3C5)CC2)c2c(Cl)cccc21` (racemic) [Example 51, (±)-Ethyl 2-(1′-((2-adamantyl)carbamoyl)-7-chloro-2,3-dihydrospiro[indene-1,4′-piperidine]-3-yl)acetate] gave an IC50 of less than 50 nM.
Work on `O=C(O)CC1CC2(CCN(C(=O)NC3C4CC5CC(C4)CC3C5)CC2)c2c(Cl)cccc21` (racemic) [Example 52, (±)-2-(1′-((2-Adamantyl)carbamoyl)-7-chloro-2,3-dihydrospiro[indene-1,4′-piperidine]-3-yl)acetic acid] yielded an IC50 of less than 50 nM.
For `CCOC(=O)CC1CC2(CCN(C(=O)NC3C4CC5CC(C4)CC3C5)CC2)c2cc(Cl)ccc21` (racemic) [Example 53, (±)-Ethyl 2-(1′-((2-adamantyl)carbamoyl)-6-chloro-2,3-dihydrospiro[indene-1,4′-piperidine]-3-yl)acetate], the IC50 was less than 50 nM.
In the case of `O=C(O)CC1CC2(CCN(C(=O)NC3C4CC5CC(C4)CC3C5)CC2)c2cc(Cl)ccc21` (racemic) [Example 54, (±)-2-(1′-((2-Adamantyl)carbamoyl)-6-chloro-2,3-dihydrospiro[indene-1,4′-piperidin]-3-yl)acetic acid], the IC50 is reported as less than 50 nM.
`CCOC(=O)CC1CC2(CCN(C(=O)NC3C4CC5CC(C4)CC3C5)CC2)c2ccc(Cl)cc21` (racemic) [Example 55, (±)-Ethyl 2-(1′-((2-adamantyl)carbamoyl)-5-chloro-2,3-dihydrospiro[indene-1,4′-piperidine]-3-yl)acetate] was tested, and the IC50 was less than 50 nM.
`O=C(O)CC1CC2(CCN(C(=O)NC3C4CC5CC(C4)CC3C5)CC2)c2ccc(Cl)cc21` (racemic) [Example 56, (±)-2-(1′-((2-Adamantyl)carbamoyl)-5-chloro-2,3-dihydrospiro[indene-1,4′-piperidine]-3-yl)acetic acid] gave an IC50 of less than 50 nM.
With `Cc1ccc2c(c1)C1(CCN(C(=O)NC3C4CC5CC(C4)CC3C5)CC1)CC2CC(=O)O` (racemic) [Example 57, (±)-2-(1′-((2-Adamantyl)carbamoyl)-6-methyl-2,3-dihydrospiro[indene-1,4′-piperidine]-3-yl)acetic acid] the IC50 was less than 50 nM.
Molecule `COc1ccc2c(c1)C1(CCN(C(=O)NC3C4CC5CC(C4)CC3C5)CC1)CC2CC(=O)O` (racemic) [Example 59, (±)-2-(1′-((2-Adamantyl)carbamoyl)-6-methoxy-2,3-dihydrospiro[indene-1,4′-piperidine]-3-yl)acetic acid] has an IC50 of less than 50 nM.
Molecule `O=C(O)CC1CC2(CCN(C(=O)NC3C4CC5CC(C4)CC3C5)CC2)c2cc(F)ccc21` (racemic) [Example 60, (±)-2-(1′-((2-Adamantyl)carbamoyl)-6-fluoro-2,3-dihydrospiro[indene-1,4′-piperidine]-3-yl)acetic acid] has an IC50 of less than 50 nM.
In the case of `CCOC(=O)CC1CC2(CCN(C(=O)NC34CC5CC(CC(C5)C3)C4)CC2)c2c(Br)cccc21` (racemic) [Example 61, (±)-Ethyl 2-(7-bromo-1′-((1-adamantyl)carbamoyl)-2,3-dihydrospiro[indene-1,4′-piperidine]-3-yl)acetate], the IC50 is reported as less than 50 nM.
`O=C(O)CC1CC2(CCN(C(=O)NC34CC5CC(CC(C5)C3)C4)CC2)c2c(Br)cccc21` (racemic) [Example 62, (±)-2-(7-Bromo-1′-((1-adamantyl)carbamoyl)-2,3-dihydrospiro[indene-1,4′-piperidine]-3-yl)acetic acid] was tested, and the IC50 was less than 50 nM.
Work on `O=C(O)CC1CC2(CCN(C(=O)OC3C4CC5CC(C4)CC3C5)CC2)c2c(Br)cccc21` (racemic) [Example 63, (±)-2-(7-Bromo-1′-((2-adamantyloxy)carbonyl)-2,3-dihydrospiro[indene-1,4′-piperidine]-3-yl)acetic acid] yielded an IC50 of less than 50 nM.
In the case of `Cc1ccc2c(c1)C1(CCN(C(=O)OC3C4CC5CC(C4)CC3C5)CC1)CC2CC(=O)O` (racemic) [Example 64, (±)-2-(6-Methyl-1′-((2-adamantyloxy)carbonyl)-2,3-dihydrospiro[indene-1,4′-piperidine]-3-yl)acetic acid], the IC50 is reported as less than 50 nM.
Work on `Cc1ccc2c(c1)C(CC(=O)O)CC21CCN(C(=O)OC2C3CC4CC(C3)CC2C4)CC1` (racemic) [Example 65, (±)-2-(5-Methyl-1′-((2-adamantyloxy)carbonyl)-2,3-dihydrospiro[indene-1,4′-piperidine]-3-yl)acetic acid] yielded an IC50 of less than 50 nM.
For `CCOC(=O)C(C)(C)C1CC2(CCN(C(=O)NC3C4CC5CC(C4)CC3C5)CC2)c2c(Br)cccc21` (racemic) [Example 67, (±)-Ethyl 2-(7-bromo-1′-((2-adamantyl)carbamoyl)-2,3-dihydrospiro[indene-1,4′-piperidine]-3-yl)-2-methylpropanoate], the IC50 was less than 50 nM.
`CC(C)(C(=O)O)C1CC2(CCN(C(=O)NC3C4CC5CC(C4)CC3C5)CC2)c2c(Br)cccc21` (racemic) [Example 68, (±)-2-(7-Bromo-1′-((2-adamantyl)carbamoyl)-2,3-dihydrospiro[indene-1,4′-piperidine]-3-yl-2-methylpropanoic acid] showed an IC50 of less than 50 nM.
`CS(=O)(=O)NC(=O)CC1CC2(CCN(C(=O)OC3C4CC5CC(C4)CC3C5)CC2)c2c(Br)cccc21` (racemic) [Example 69, (±)-2-Adamantyl 7-bromo-3-(2-(methylsulfonamido)-2-oxoethyl)-2,3-dihydrospiro[indene-1,4′-piperidine]-1′-carboxylate] was tested, and the IC50 was less than 50 nM.
With `CS(=O)(=O)NC(=O)CC1CC2(CCN(C(=O)NC3C4CC5CC(C4)CC3C5)CC2)c2c(Br)cccc21` (racemic) [Example 70, (±)-7-Bromo-N-(2-adamantyl)-3-(2-(methylsulfonamido)-2-oxoethyl)-2,3-dihydrospiro[indene-1,4′-piperidine]-1′-carboxamide] the IC50 was less than 50 nM.
`CN(C)C(=O)CC1CC2(CCN(C(=O)OC3C4CC5CC(C4)CC3C5)CC2)c2ccccc21` (racemic) [Example 71, (±)-2-Adamantyl 3-(2-(dimethylamino)-2-oxoethyl)-2,3-dihydrospiro[indene-1,4′-piperidine]-1′-carboxylate] showed an IC50 of less than 50 nM.
With `O=C(O)CC1CC2(CCN(C(=O)NC3C4CC5(O)CC3CC(O)(C4)C5)CC2)c2c(Br)cccc21` (racemic) [Example 76, (±)-2-(7-Bromo-1′-(1,7-dihydroxy-4-adamantylcarbamoyl)-2,3-dihydrospiro[indene-1,4′-piperidine]-3-yl)acetic acid] the IC50 was 50 to 1000 nM.
`O=C(O)[C@@H]1C[C@H]1C(=O)N1Cc2ccccc2C2(CCN(C(=O)OC3C4CC5CC(C4)CC3C5)CC2)C1` (mixture of isomers) [Example 100, (1RS,2RS)-2-(1′-(2-Adamantyloxycarbonyl)-2,3-dihydro-1H-spiro[isoquinoline-4,4′-piperidine]-2-ylcarbonyl)cyclopropanecarboxylic acid] showed an IC50 of less than 50 nM.
Work on `O=C(NC1C2CC3CC(C2)CC1C3)N1CCC2(CC1)CC(CCO)c1cccc(Br)c12` (racemic) [Example 122, (±)-7-Bromo-N-(2-adamantyl)-3-(2-hydroxyethyl)-2,3-dihydrospiro[indene-1,4′-piperidine]-1′-carboxamide] yielded an IC50 of less than 50 nM.
